Patent US9035059B2, “Nitrogen-containing condensed heterocyclic compound” (TAISHO PHARMACEUTICAL CO., LTD., priority 2011, dated 2015)

target: human MGAT2 (Homo sapiens (Human), UniProt Q3SYC2); assay: Test Example 1: Test of MGAT2 inhibitory action (human MGAT2 enzyme fraction from Sf9 cells, free CoA detected by CPM fluorescence); type: biochemical; details: human MGAT2 enzyme fraction expressed in Sf9 insect cells, 0.5 μg/ml, 2-monooleoyl glycerol 0.78 μM, oleoyl-CoA 5.3 μM, room temperature 20 min, read-out: Activity Value [nM] (IC50, concentration at which 50% of produced free CoA was inhibited)
Sequence (Q3SYC2 whole entry): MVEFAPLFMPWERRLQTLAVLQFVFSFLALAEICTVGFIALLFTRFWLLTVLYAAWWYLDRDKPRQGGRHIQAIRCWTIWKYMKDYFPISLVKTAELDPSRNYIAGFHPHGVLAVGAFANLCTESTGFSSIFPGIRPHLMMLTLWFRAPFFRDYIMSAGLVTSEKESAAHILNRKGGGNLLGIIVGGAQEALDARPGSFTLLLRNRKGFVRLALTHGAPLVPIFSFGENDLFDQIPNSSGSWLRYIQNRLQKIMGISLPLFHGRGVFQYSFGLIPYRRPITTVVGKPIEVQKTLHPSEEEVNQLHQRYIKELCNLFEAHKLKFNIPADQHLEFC
Method: The MGAT2 inhibitory action of the inventive compound was measured by the methods described in Test Examples as shown below. The MGAT enzyme activity was measured based on the amount of an indicator, free Coenzyme A (CoA) which is generated by the reaction shown below, using a sulfhydryl reactive pigment (7-diethylamino-3-(4-maleimidophenyl)-4-methylcoumarin; hereinafter, sometimes abbreviated as CPM).
A test for MGAT2 inhibitory action of test compounds was conducted in accordance with a partially modified version of the method described in John F. Lockwood et al., Am. J. Physiol. Endocrinol. Metab., 2003, 285, E927.
Bac-to-Bac Baculovirus Expression System (Life Technologies Japan) was used to express human MGAT2 in insect cells (Sf9) (Life Technologies Japan). These cells were sonicated and centrifuged at 100,000 g×1 hr to give a precipitate. The precipitate was used as a human MGAT2 enzyme fraction in this assay.
This test was conducted using a black flat-bottom 96-well plate (Corning). A buffer solution with final concentrations of 5 mM magnesium chloride, 100 mM sucrose and 100 mM Tris-HCl (pH=7.5) was prepared and test compounds prepared in various concentrations using dimethyl sulfoxide were added thereto to give a final dimethyl sulfoxide concentration of 1%. The MGAT2 enzyme fraction was added thereto to give a final concentration of 0.5 μg/ml and phosphatidylcholine, 2-monooleoyl glycerol and oleoyl-CoA were added thereto to give final concentrations of 7.5 μM, 0.78 μM and 5.3 μM, respectively, before starting a reaction. The reaction was performed at room temperature for 20 min.
After 20 min, a CPM-containing solution was added thereto to give a final concentration of 5 μM before stopping the MGAT reaction. After 1 hr, a fluorescence detector (Infinite 200 from Tecan Japan) was used to measure the CPM fluorescence value of each well (excitation 380 nm, emission 460 nm).

`CC(C)(C)c1ccc(NC(=O)N2Cc3ccc(S(=O)(=O)Nc4ccc(OCCCCc5ccccc5)cc4F)cc3C2)cc1` [19-2] and `CC(C)(C)c1ccc(NC(=O)N2Cc3ccc(S(=O)(=O)Nc4ccc(OCCc5ccccn5)cc4F)cc3C2)cc1` [19-12] are within 1.5-fold of each other in IC50: 30 nM for the first, 23 nM for the second.

Going from `CC(C)(C)c1ccc(NC(=O)N2Cc3ccc(S(=O)(=O)Nc4ccc(OCCCC5CCCC5)cc4F)cc3C2)cc1` [19-3] to `CC(C)CCCOc1ccc(NS(=O)(=O)c2ccc3c(c2)CN(C(=O)Nc2ccc(C(C)(C)C)cc2)C3)c(F)c1` [19-7], the IC50 rises from 4 nM to 99 nM (25-fold).

First: C/C=C\CCCCCOc1ccc(NS(=O)(=O)c2ccc3c(c2)CN(C(=O)Nc2ccc(C(C)(C)C)cc2)C3)c(F)c1 [19-4]
Second: C/C=C\CCCOc1ccc(NS(=O)(=O)c2ccc3c(c2)CN(C(=O)Nc2ccc(C(C)(C)C)cc2)C3)c(F)c1 [19-11]
The IC50 of the first is 64-fold lower: 2 nM for the first, 128 nM for the second. The first is the more potent here.

First: CCCCCCCOc1ccc(NS(=O)(=O)c2ccc3c(c2)CN(C(=O)Nc2ccc(C(C)(C)C)cc2)C3)c(F)c1 [19-8]
Second: CCCCCCOc1ccc(NS(=O)(=O)c2ccc3c(c2)CCN(CCc2ccc(C(C)(C)CO)cc2)C3)c(F)c1 [Working Example 6-30]
The IC50 of the first is 7.6-fold lower: 28 nM for the first, 214 nM for the second. The first is the more potent here.

`O=S(=O)(Nc1ccc(CCCC2CCCC2)cc1F)c1ccc2c(c1)CCN(CCc1ccc(OC(F)(F)F)cc1)C2` [22-2] and `O=S(=O)(Nc1ccc(CCCC2CCCC2)cc1F)c1ccc2c(c1)CCN(Cc1ccc(OC(F)(F)C(F)F)cc1)C2` [Working Example 7-50] are within 1.5-fold of each other in IC50: 256 nM for the first, 273 nM for the second.

First: CC(c1ccc(C(C)(C)C)nc1)N1CCc2cc(S(=O)(=O)Nc3ccc(CCCC4CCCC4)cc3F)ccc2C1 (stereo not drawn) [23-1, 2-[1-(6-tert-Butylpyridin-3-yl)ethyl]-N-[4-(3-cyclopentylpropyl)-2-fluorophenyl]-1,2,3,4-tetrahydroisoquinoline-6-sulfonamide]
Second: CC(C)(C)c1ccc(CN2CCc3cc(S(=O)(=O)Nc4ccc(CCCC5CCCC5)cc4F)ccc3C2)cn1 [Working Example 6-31]
The IC50 of the first is 2.4-fold lower: 13 nM for the first, 31 nM for the second.

Going from `CC(c1ccc(C(C)(C)C)nc1)N1CCc2cc(S(=O)(=O)Nc3ccc(OCCCCCc4ccccc4)cc3F)ccc2C1` (stereo not drawn) [23-2] to `CC(C)(C)c1ccc(CN2CCc3cc(S(=O)(=O)Nc4ccc(OCCCCCc5ccccc5)cc4F)ccc3C2)cn1` [Working Example 6-34], the IC50 rises from 14 nM to 36 nM (2.6-fold). The first is the more potent here.

Going from `O=C(OC1CCCCC1)N1CCc2cc(S(=O)(=O)Nc3ccc(CCCC4CCCC4)cc3F)ccc2C1` [26-1, Cyclohexyl 6-{[4-(3-cyclopentylpropyl)-2-fluorophenyl]sulfamoyl}-3,4-dihydroisoquinoline-2(1H)-carboxylate] to `CC(C)(C)[C@H]1CC[C@H](C(=O)N2CCc3cc(S(=O)(=O)Nc4ccc(CCCC5CCCC5)cc4F)ccc3C2)CC1` [Working Example 1-6], the IC50 falls from 217 nM to 88 nM (2.5-fold).

Compared with `CC(C)(C)c1ccc(C(=O)N2CCc3cc(S(=O)(=O)Nc4ccc(CCCC5CCCC5)cc4F)ccc3C2)cc1` [Working Example 1-4], `CC(C)(C)c1ccc(CCN2CCc3cc(S(=O)(=O)Nc4ccc(CCCC5CCCC5)cc4F)ccc3C2)cc1` [Working Example 6-17] is 7.5-fold lower in IC50: 211 nM for the first, 28 nM for the second. The second is the more potent here.

`O=C(c1ccc(C(F)(F)F)nc1)N1CCc2cc(S(=O)(=O)Nc3ccc(CCCC4CCCC4)cc3F)ccc2C1` [Working Example 1-5] and `O=S(=O)(Nc1ccc(CCCC2CCCC2)cc1F)c1ccc2c(c1)CCN(Cc1ccc(C(F)(F)F)nc1)C2` [Working Example 6-54] are within 1.5-fold of each other in IC50: 154 nM for the first, 180 nM for the second.

Going from `CC(C)(C)[C@H]1CC[C@@H](C(=O)N2CCc3cc(S(=O)(=O)Nc4ccc(CCCC5CCCC5)cc4F)ccc3C2)CC1` [Working Example 1-7] to `CC(C)(C)c1ncc(CN2CCc3cc(S(=O)(=O)Nc4ccc(CCCC5CCCC5)cc4F)ccc3C2)s1` [Working Example 6-48], the IC50 falls from 292 nM to 49 nM (6-fold). The second is the more potent here.

Compared with `CC(C)(C)c1ccc(CC(=O)N2CCc3cc(S(=O)(=O)Nc4ccc(OCCC5CCCCC5)cc4F)ccc3C2)cc1` [Working Example 4-1, 2-[(4-tert-Butylphenyl)acetyl]-N-[4-(2-cyclohexylethoxy)-2-fluorophenyl]-1,2,3,4-tetrahydroisoquinoline-6-sulfonamide], `CC(C)(C)c1ccc(CCN2CCc3cc(S(=O)(=O)Nc4ccc(OCCC5CCCCC5)cc4F)ccc3C2)cc1` [Working Example 5-1, 2-[2-(4-tert-Butylphenyl)ethyl]-N-[4-(2-cyclohexylethoxy)-2-fluorophenyl]-1,2,3,4-tetrahydroisoquinoline-6-sulfonamide] is 2-fold lower in IC50: 149 nM for the first, 76 nM for the second.

Compared with `CCCCCCCc1ccc(NS(=O)(=O)c2ccc3c(c2)CCN(CCc2ccc(C(C)(C)C)cc2)C3)c(F)c1` [Working Example 6-18], `CC(C)(C)c1ccc(CCN2CCc3cc(S(=O)(=O)Nc4ccc(CCCCCc5ccccc5)cc4F)ccc3C2)cc1` [Working Example 6-28] is 1.5-fold higher in IC50: 35 nM for the first, 53 nM for the second.

First: CC(C)(C)c1ccc(CCN2CCc3cc(S(=O)(=O)Nc4ccc(CCCC5CCCCC5)cc4F)ccc3C2)cc1 [Working Example 6-19]
Second: CC(C)(C)c1ccc(CCN2CCc3cc(S(=O)(=O)Nc4ccc(CCCC5CCOCC5)cc4F)ccc3C2)cc1 [Working Example 6-75]
The IC50 of the first is 2.6-fold higher: 62 nM for the first, 24 nM for the second.

`CC(C)(C)c1ccc(CN2CCc3cc(S(=O)(=O)Nc4ccc(OCCCc5ccccc5)cc4F)ccc3C2)cn1` [Working Example 6-26] and `CC(C)(C)c1ccc(CCN2CCc3cc(S(=O)(=O)Nc4ccc(OCCCc5ccccc5)cc4F)ccc3C2)cn1` [Working Example 6-45] are within 1.5-fold of each other in IC50: 218 nM for the first, 286 nM for the second.

Compared with `CCCCCCOc1ccc(NS(=O)(=O)c2ccc3c(c2)CCN(Cc2ccc(C(C)(C)C)nc2)C3)c(F)c1` [Working Example 6-27], `CCCCCCCCOc1ccc(NS(=O)(=O)c2ccc3c(c2)CCN(Cc2ccc(C(C)(C)C)nc2)C3)c(F)c1` [Working Example 6-33] is 5.2-fold lower in IC50: 135 nM for the first, 26 nM for the second. The second is the more potent here.

Compared with `CCCCCCCc1ccc(NS(=O)(=O)c2ccc3c(c2)CCN(Cc2ccc(C(C)(C)C)nc2)C3)c(F)c1` [Working Example 6-32], `CCCCCCCc1ccc(NS(=O)(=O)c2ccc3c(c2)CCN(Cc2ccc(C(F)(F)F)nc2)C3)c(F)c1` [Working Example 7-29] is 4.3-fold higher in IC50: 31 nM for the first, 134 nM for the second.

`CC(C)(C)c1ccc(CN2CCc3cc(S(=O)(=O)Nc4ccc(OCCCC5CCCCC5)cc4F)ccc3C2)cn1` [Working Example 6-35] and `CC(C)(C)c1ccc(CCN2CCc3cc(S(=O)(=O)Nc4ccc(CCCC5CCCC5)cc4F)ccc3C2)cn1` [Working Example 6-63] are within 1.5-fold of each other in IC50: 65 nM for the first, 62 nM for the second.

`CCCCCCCCN1CCc2cc(S(=O)(=O)Nc3ccc(OCCCCCC)cc3F)ccc2C1` [Working Example 6-36] and `CCCCCCCc1ccc(NS(=O)(=O)c2ccc3c(c2)CCN(CCCCCC)C3)c(F)c1` [Working Example 7-35] are within 1.5-fold of each other in IC50: 253 nM for the first, 220 nM for the second.

`CCCCCCOc1ccc(NS(=O)(=O)c2ccc3c(c2)CCN(CCc2ccc(C(C)(C)C)nc2)C3)c(F)c1` [Working Example 6-44] and `CCCCCCOc1ccc(NS(=O)(=O)c2ccc3c(c2)CCN(Cc2cnc(C(C)(C)C)s2)C3)c(F)c1` [Working Example 7-19] are within 1.5-fold of each other in IC50: 258 nM for the first, 195 nM for the second.

`CC(C)(C)c1cnc(CCN2CCc3cc(S(=O)(=O)Nc4ccc(CCCC5CCCC5)cc4F)ccc3C2)nc1` [Working Example 6-64] and `CC(C)(C)c1ncc(CN2CCc3cc(S(=O)(=O)Nc4ccc(CCCC5CCCC5)cc4F)ccc3C2)cn1` [Working Example 7-56] are within 1.5-fold of each other in IC50: 40 nM for the first, 52 nM for the second.

Compared with `Cc1nc(-c2ccc(C(F)(F)F)cc2)sc1CN1CCc2cc(S(=O)(=O)Nc3ccc(CCCC4CCCC4)cc3F)ccc2C1` [Working Example 6-65], `O=S(=O)(Nc1ccc(CCCC2CCCC2)cc1F)c1ccc2c(c1)CCN(Cc1cnc(C(F)(F)F)nc1)C2` [Working Example 6-78] is 4.5-fold higher in IC50: 51 nM for the first, 228 nM for the second. The first is the more potent here.

`CC(C)(C)c1ccc(CN2CCc3cc(S(=O)(=O)Nc4ccc(OCCC5CCOCC5)cc4F)ccc3C2)cc1` [Working Example 6-66] and `CC(C)Oc1ccc(CN2CCc3cc(S(=O)(=O)Nc4ccc(CCCC5CCCC5)cc4F)ccc3C2)cc1` [Working Example 7-45] are within 1.5-fold of each other in IC50: 203 nM for the first, 199 nM for the second.

Going from `CCCCCCCc1ccc(NS(=O)(=O)c2ccc3c(c2)CCN(Cc2cnc(C(C)(C)C)s2)C3)c(F)c1` [Working Example 7-32] to `CC(C)(C)c1cnc(CN2CCc3cc(S(=O)(=O)Nc4ccc(CCCC5CCCC5)cc4F)ccc3C2)cn1` [Working Example 7-60], the IC50 rises from 42 nM to 233 nM (5.5-fold).

Going from `O=S(=O)(Nc1ccc(CCCC2CCCC2)cc1F)c1ccc2c(c1)CCN(CCCC(F)(F)F)C2` [Working Example 7-54] to `CC(C)(C)c1ccc(CCN2CCc3cc(S(=O)(=O)Nc4ccc(OCCCCc5ccccc5)cc4F)ccc3C2)cc1` [Working Example 8-1, 2-[2-(4-tert-Butylphenyl)ethyl]-N-[2-fluoro-4-(4-phenylbutoxy)phenyl]-1,2,3,4-tetrahydroisoquinoline-6-sulfonamide], the IC50 falls from 162 nM to 70 nM (2.3-fold).

`CC(C)(C)c1ccc(CCN2CCc3cc(S(=O)(=O)Nc4ccc(OCCCc5ccccc5)cc4F)ccc3C2)cc1` [Working Example 8-2] showed an IC50 of 173 nM.
